Where two headings read alike, the source gives them in different places.
How the values were obtained:
Assay in all cases: Test C pre/postemergence
Assay type in all cases: in vivo
[1] = test system: eastern black nightshade (Solanum ptycanthum); details: Preemergence
Procedure, shortened: (§1)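 Percent control is a visual rating (0 none, 100 complete) taken against untreated plants after 12 to 14 days of greenhouse growth. Applications were made preemergence to seeded pots and postemergence to plants at the 1- to 4-leaf stage, in a non-phytotoxic surfactant-containing solvent.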

[2] = test system: bermudagrass (Cynodon dactylon); details: for pest or weed control at 31 g/ha / pest or weed control at 62 g/ha / pest or weed control at 125 g/ha / pest or weed control at 16 g/ha / pest or weed control at 250 g/ha: Cynodon dactylon
Procedure, shortened: as §1

[3] = test system: common ragweed (Ambrosia elatior)
Procedure, shortened: as §1

[4] = 16 g ai/ha, scale 0 to 100, 0 no effect, 100 complete control
[5] = 31 g ai/ha, scale 0 to 100, 0 no effect, 100 complete control
[6] = 62 g ai/ha, scale 0 to 100, 0 no effect, 100 complete control
[7] = scale 0 to 100, 0 no effect, 100 complete control
[8] = Postemergence, 62 g ai/ha, scale 0 to 100 (0 no effect, 100 complete control)
[9] = Postemergence, 125 g ai/ha, scale 0 to 100 (0 no effect, 100 complete control)
[10] = Preemergence, 16 g ai/ha, scale 0 to 100, 0 no effect, 100 complete control
[11] = Preemergence, 31 g ai/ha, scale 0 to 100, 0 no effect, 100 complete control
[12] = Preemergence, 62 g ai/ha, scale 0 to 100, 0 no effect, 100 complete control
[13] = Preemergence, 125 g ai/ha, scale 0 to 100
[14] = Preemergence, scale 0 to 100, 0 no effect, 100 complete control
[15] = pre-emergence, Preemergence, 31 g ai/ha, scale 0 to 100, 0 no effect, 100 complete control, read-out: Plant response rating, Bermudagrass
[16] = pre-emergence, Preemergence, 62 g ai/ha, scale 0 to 100, 0 no effect, 100 complete control, read-out: Plant response rating, Bermudagrass
[17] = pre-emergence, Preemergence, 125 g ai/ha, scale 0 to 100, read-out: Plant response rating, Bermudagrass
[18] = Ambrosia artemisiifolia, pre-emergence, Preemergence, 31 g ai/ha, scale 0 to 100, 0 no effect, 100 complete control, read-out: Plant response rating, Ragweed
[19] = Ambrosia artemisiifolia, pre-emergence, Preemergence, 62 g ai/ha, scale 0 to 100, 0 no effect, 100 complete control, read-out: Plant response rating, Ragweed
[20] = post-emergence, Postemergence, 62 g ai/ha, scale 0 to 100 (0 no effect, 100 complete control), read-out: Bermudagrass plant response rating
[21] = post-emergence, Postemergence, 125 g ai/ha, scale 0 to 100 (0 no effect, 100 complete control), read-out: Bermudagrass plant response rating
[22] = Ambrosia artemisiifolia, post-emergence, Postemergence, 31 g ai/ha, read-out: Plant response rating (scale of 0 to 100), Ragweed
[23] = Ambrosia artemisiifolia, post-emergence, Postemergence, 125 g ai/ha, scale 0 to 100 (0 no effect, 100 complete control), read-out: Ragweed plant response rating
[24] = Postemergence, 250 g ai/ha, scale 0 to 100
[25] = Postemergence, 500 g ai/ha, scale 0 to 100
[26] = Preemergence, 250 g ai/ha, scale 0 to 100
[27] = Preemergence, 500 g ai/ha, scale 0 to 100

Row | SMILES | Plant response rating, Nightshade [1, 4] | Plant response rating, Nightshade [1, 5] | Plant response rating, Nightshade [1, 6] | Plant response rating, Nightshade [1, 7] | Bermudagrass plant response rating [2, 8] | Bermudagrass plant response rating [2, 9] | Plant response rating, Bermudagrass [2, 10] | Plant response rating, Bermudagrass [2, 11] | Plant response rating, Bermudagrass [2, 12] | Plant response rating, Bermudagrass [2, 13] | Ragweed plant response rating [3, 9] | Plant response rating, Ragweed [3, 10] | Plant response rating, Ragweed [3, 12] | Plant response rating, Ragweed [3, 14] | pest or weed control at 31 g/ha [2, 15] [%] | pest or weed control at 62 g/ha [2, 16] [%] | pest or weed control at 125 g/ha [2, 17] [%] | pest or weed control at 31 g/ha [3, 18] [%] | pest or weed control at 62 g/ha [3, 19] [%] | pest or weed control at 62 g/ha [2, 20] [%] | further results
1 | CCCCOC(=O)c1nc(C2CC2)nc(N)c1Cl [Compound 76] | 30 | 40 | 60 | 100 | 75 | 75 | 0 | 0 | 0 | 0 | 100 | 50 | 80 | 100 |  |  |  |  |  |  | Plant response rating (scale of 0 to 100), Bermudagrass ([2]; Postemergence, 16 g ai/ha): 15; Plant response rating (scale of 0 to 100), Bermudagrass ([2]; Postemergence, 31 g ai/ha): 70; Plant response rating (scale of 0 to 100), Ragweed ([3]; Postemergence, 16 g ai/ha): 80; Plant response rating (scale of 0 to 100), Ragweed ([3]; Postemergence, 31 g ai/ha): 90; Plant response rating (scale of 0 to 100), Ragweed ([3]; Postemergence, 62 g ai/ha): 95; Plant response rating, Ragweed [3, 11]: 60
2 | Nc1nc(C2CC2)nc(C(=O)[O-])c1Cl.[Na+] [Compound 77, 6-amino-5-chloro-2-cyclopropyl-4-pyrimidinecarboxylic acid monosodium salt] | 0 | 0 | 0 |  |  |  | 0 |  |  |  |  | 0 |  |  | 0 | 0 | 0 | 0 | 50 |  | 
3 | Nc1nc(C2CC2)nc(C(=O)O)c1Cl [Compound 135, 6-amino-5-chloro-2-cyclopropyl-4-pyrimidinecarboxylic acid] |  | 30 | 35 | 50 |  |  |  | 0 | 0 | 0 |  | 5 | 35 | 70 |  |  |  |  |  | 60 | pest or weed control at 16 g/ha ([1]; Solanum, pre-emergence, 16 g ai/ha, scale 0 to 100, 0 no effect, 100 complete control, read-out: Plant response rating, Nightshade): 0%; pest or weed control at 16 g/ha ([2]; post-emergence, Postemergence, 16 g ai/ha, read-out: Plant response rating (scale of 0 to 100), Bermudagrass): 40%; pest or weed control at 125 g/ha [2, 21]: 75%; pest or weed control at 16 g/ha ([2]; pre-emergence, Preemergence, 16 g ai/ha, scale 0 to 100, 0 no effect, 100 complete control, read-out: Plant response rating, Bermudagrass): 0%; pest or weed control at 16 g/ha ([3]; Ambrosia artemisiifolia, post-emergence, Postemergence, 16 g ai/ha, read-out: Plant response rating (scale of 0 to 100), Ragweed): 75%; pest or weed control at 31 g/ha [3, 22]: 80%; pest or weed control at 62 g/ha ([3]; Ambrosia artemisiifolia, post-emergence, Postemergence, 62 g ai/ha, read-out: Plant response rating (scale of 0 to 100), Ragweed): 85%; pest or weed control at 125 g/ha [3, 23]: 95%
4 | CCOC(=O)c1nc(C2CC2)nc(N)c1F [Compound 30] |  |  |  |  |  |  |  |  |  |  |  |  |  |  | 0 | 0 | 0 | 30 | 85 | 0 | pest or weed control at 31 g/ha ([1]; Solanum, pre-emergence, 31 g ai/ha, scale 0 to 100, 0 no effect, 100 complete control, read-out: Plant response rating, Nightshade): 50%; pest or weed control at 62 g/ha ([1]; Solanum, pre-emergence, 62 g ai/ha, scale 0 to 100, 0 no effect, 100 complete control, read-out: Plant response rating, Nightshade): 80%; pest or weed control at 125 g/ha ([1]; Solanum, pre-emergence, 125 g ai/ha, scale 0 to 100, read-out: Plant response rating, Nightshade): 100%; pest or weed control at 250 g/ha ([1]; Solanum, pre-emergence, 250 g ai/ha, scale 0 to 100, read-out: Plant response rating, Nightshade): 100%; pest or weed control at 31 g/ha ([2]; post-emergence, Postemergence, 31 g ai/ha, read-out: Plant response rating (scale of 0 to 100), Bermudagrass): 0%; pest or weed control at 125 g/ha [2, 21]: 5%; pest or weed control at 250 g/ha ([2]; post-emergence, Postemergence, 250 g ai/ha, scale 0 to 100, read-out: Plant response rating, Bermudagrass): 5%; pest or weed control at 250 g/ha ([2]; pre-emergence, Preemergence, 250 g ai/ha, scale 0 to 100, read-out: Plant response rating, Bermudagrass): 0%; pest or weed control at 31 g/ha [3, 22]: 60%; pest or weed control at 62 g/ha ([3]; Ambrosia artemisiifolia, post-emergence, Postemergence, 62 g ai/ha, scale 0 to 100 (0 no effect, 100 complete control), read-out: Ragweed plant response rating): 80%; pest or weed control at 125 g/ha [3, 23]: 85%; pest or weed control at 250 g/ha ([3]; Ambrosia artemisiifolia, post-emergence, Postemergence, 250 g ai/ha, scale 0 to 100, read-out: Plant response rating, Ragweed): 90%; pest or weed control at 125 g/ha ([3]; Ambrosia artemisiifolia, pre-emergence, Preemergence, 125 g ai/ha, scale 0 to 100, read-out: Plant response rating, Ragweed): 90%; pest or weed control at 250 g/ha ([3]; Ambrosia artemisiifolia, pre-emergence, Preemergence, 250 g ai/ha, scale 0 to 100, read-out: Plant response rating, Ragweed): 100%
5 | CNN=Cc1nc(C2CC2)nc(N)c1Br [Compound 49] |  |  | 95 |  | 0 | 55 |  |  | 0 | 0 | 65 |  | 70 |  |  |  |  |  |  |  | Plant response rating, Nightshade ([1]; 125 g ai/ha, scale 0 to 100): 100; Plant response rating, Nightshade ([1]; 250 g ai/ha, scale 0 to 100): 100; Plant response rating, Nightshade ([1]; 500 g ai/ha, scale 0 to 100): 100; Plant response rating, Bermudagrass [2, 24]: 55; Plant response rating, Bermudagrass [2, 25]: 65; Plant response rating, Bermudagrass [2, 26]: 85; Plant response rating, Bermudagrass [2, 27]: 95; Ragweed plant response rating [3, 8]: 45; Plant response rating, Ragweed [3, 24]: 75; Plant response rating, Ragweed [3, 25]: 90; Plant response rating, Ragweed [3, 13]: 100; Plant response rating, Ragweed [3, 26]: 100; Plant response rating, Ragweed [3, 27]: 100

— patent publication US8802597B2, “Herbicidal pyrimidines” (E I du Pont de Nemours and Company, priority 2003, dated 2014)
